The source of these data is patent US20240067632A1, “WEE1 Degrading Compounds and Uses Thereof” (Bristol-Myers Squibb Company, priority 2022, published 2024).

The test system of one assay is MKN45 cells. As to the kind of experiment: MKN45 cell proliferation assay (Cell-Titer-Glo, 120 h). It counts as cell-based. The following applies: for pEC50: Homo sapiens, MKN-45, 120 h, Cell-Titer-Glo, growth inhibition, read-out: MKN45 Cell Prolif. 120 hr (EC50); for MKN45 Cell Prolif. 120 hr (Ymin-Obs): minimal percent of DMSO control observed in the concentrations tested. The procedure, abridged: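 Cells seeded at 400/well onto pre-printed 10-point half-log dilutions (top 1 or 10 uM, 0.1% DMSO final), in triplicate, and grown 120 h at 37 C. Viability by Cell-Titer-Glo luminescence, blank-subtracted and normalised to DMSO; EC50 from four-parameter logistic fit, with observed minimal % of control recorded as Ymin-obs.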

A further assay concerns the target T1, WEE1 (Homo sapiens, UniProt P30291+Q96SW2).
T1 construct: C-terminal ePL-tagged (DiscoverX, Fremont, CA) full-length WEE1 expression construct; expressed in transfected cells; host or cells: LentiX-HEK293T (Invitrogen), lentiviral transduction; co-expressing GSPT1-GN (G576N, lacking the first 158 amino acids)
As to the kind of experiment: WEE1-ePL degradation assay (LentiX-WEE1-ePL-GSPT1-ND cells, InCELL Hunter luminescence, 4 h). The format is cell-based. Conditions: 293T-LentiX WEE1-ePL cells; for 293T-LentiX WEE1-ePL Degradation 4 hr (Ymin): lower limit of the fit (0 = luciferase inhibitor, Ymax = DMSO control); for DC50: read-out: 293T-LentiX WEE1-ePL Degradation 4 hr (EC50). The procedure, abridged: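 HEK293T cells stably expressing C-terminal ePL-tagged full-length WEE1, 2500 cells/well, treated 4 h at 37° C with a 10-point 3-fold series from 1 or 10 uM. Remaining WEE1-ePL read by InCELL Hunter luminescence after 30 min. EC50 came from a four-parameter logistic fit, with Ymax set from DMSO control.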

pEC50: −log10 of the molar value.

As usually defined, the pEC50 is the negative decadic logarithm of the EC50, by convention in mol/L. In the case of `COCc1ncc2cc(CN3CC[C@H](Oc4ccc5c(c4)CN(C4CCC(=O)NC4=O)C5=O)C3)ccc2n1` (stereo partly drawn) [3-(5-{[(3S)-1-{[2-(methoxymethyl)quinazolin-6-yl]methyl}pyrrolidin-3-yl]oxy}-1-oxo-2,3-dihydro-1H-isoindol-2-yl)piperidine-2,6-dione], in the assay with MKN45 cells, the pEC50 is 7.11 and the “MKN45 Cell Prolif. 120 hr (Ymin-Obs)” value worked out at 9.73. Moreover, on WEE1, the “293T-LentiX WEE1-ePL Degradation 4 hr (Ymin)” value is given as 32 and the DC50 was 47.5 nM.
Taken in the same sequence, the figures for `COCc1ccc2cc(CN3CC[C@H](Oc4ccc5c(c4)CN(C4CCC(=O)NC4=O)C5=O)C3)ccc2n1` (stereo partly drawn) [3-(5-{[(3S)-1-{[2-(methoxymethyl)quinolin-6-yl]methyl}pyrrolidin-3-yl]oxy}-1-oxo-2,3-dihydro-1H-isoindol-2-yl)piperidine-2,6-dione] were 7.69, 8.38, 30.5 and 5.55 nM.
With `CNc1ncc2cc(CN3CC[C@H](Oc4ccc5c(c4)CN(C4CCC(=O)NC4=O)C5=O)C3)ccc2n1` (stereo partly drawn) [3-(5-{[(3S)-1-{[2-(methylamino)quinazolin-6-yl]methyl}pyrrolidin-3-yl]oxy}-1-oxo-2,3-dihydro-1H-isoindol-2-yl)piperidine-2,6-dione], in the assay with MKN45 cells, the pEC50 is 6.63 and the “MKN45 Cell Prolif. 120 hr (Ymin-Obs)” value came out at 22.48. Further, at WEE1, the “293T-LentiX WEE1-ePL Degradation 4 hr (Ymin)” value is recorded as 41 and the DC50 turned out to be 44.8 nM.
Take `CNc1ccc2cc(CN3CC[C@H](Oc4ccc5c(c4)CN(C4CCC(=O)NC4=O)C5=O)C3)ccc2n1` (stereo partly drawn) [3-(5-{[(3S)-1-{[2-(methylamino)quinolin-6-yl]methyl}pyrrolidin-3-yl]oxy}-1-oxo-2,3-dihydro-1H-isoindol-2-yl)piperidine-2,6-dione]: in the assay with MKN45 cells, the pEC50 was 7.66 and the “MKN45 Cell Prolif. 120 hr (Ymin-Obs)” value is on record as 9.31. Further, on WEE1, the “293T-LentiX WEE1-ePL Degradation 4 hr (Ymin)” value is 31.06 and the DC50 stood at 7.21 nM.
`O=C1CCC(N2Cc3cc(O[C@H]4CCN(Cc5ccc6nc(N7CCOCC7)ncc6c5)C4)ccc3C2=O)C(=O)N1` (stereo partly drawn) [3-(5-{[(3S)-1-{[2-(morpholin-4-yl)quinazolin-6-yl]methyl}pyrrolidin-3-yl]oxy}-1-oxo-2,3-dihydro-1H-isoindol-2-yl)piperidine-2,6-dione]: in the assay with MKN45 cells, the pEC50 was 7.79 and the “MKN45 Cell Prolif. 120 hr (Ymin-Obs)” value is 9.637. Further, at WEE1, the “293T-LentiX WEE1-ePL Degradation 4 hr (Ymin)” value is 31.33 and the DC50 came to 7.2 nM.
In the same order, the values of `O=C1CCC(N2Cc3cc(O[C@H]4CCN(Cc5ccc6nc(N7CCOCC7)ccc6c5)C4)ccc3C2=O)C(=O)N1` (stereo partly drawn) [3-(5-{[(3S)-1-{[2-(morpholin-4-yl)quinolin-6-yl]methyl}pyrrolidin-3-yl]oxy}-1-oxo-2,3-dihydro-1H-isoindol-2-yl)piperidine-2,6-dione] are 7.92, 12.168, 35 and 2.69 nM.
On to `O=C1CCC(N2Cc3cc(O[C@H]4CCN(Cc5ccc6nc(C7CCOCC7)ncc6c5)C4)ccc3C2=O)C(=O)N1` (stereo partly drawn) [3-(5-{[(3S)-1-{[2-(oxan-4-yl)quinazolin-6-yl]methyl}pyrrolidin-3-yl]oxy}-1-oxo-2,3-dihydro-1H-isoindol-2-yl)piperidine-2,6-dione], for which, in the assay with MKN45 cells, the pEC50 is 7.67 and the “MKN45 Cell Prolif. 120 hr (Ymin-Obs)” value is given as 6.11. Moreover, at WEE1, the “293T-LentiX WEE1-ePL Degradation 4 hr (Ymin)” value was determined as 30.5 and the DC50 amounted to 32.6 nM.
As for `O=C1CCC(N2Cc3cc(O[C@H]4CCN(Cc5ccc6nc(C7CCOCC7)ccc6c5)C4)ccc3C2=O)C(=O)N1` (stereo partly drawn) [3-(5-{[(3S)-1-{[2-(oxan-4-yl)quinolin-6-yl]methyl}pyrrolidin-3-yl]oxy}-1-oxo-2,3-dihydro-1H-isoindol-2-yl)piperidine-2,6-dione], in the assay with MKN45 cells, the pEC50 is 8.31 and the “MKN45 Cell Prolif. 120 hr (Ymin-Obs)” value was found to be 12.83. In addition, at WEE1, the “293T-LentiX WEE1-ePL Degradation 4 hr (Ymin)” value amounted to 32.6 and the DC50 came to 2.83 nM.
Taken in the same sequence, the figures for `O=C1CCC(N2Cc3cc(O[C@H]4CCN(Cc5ccc6nc(OC7CCOCC7)ccc6c5)C4)ccc3C2=O)C(=O)N1` (stereo partly drawn) [3-(5-{[(3S)-1-{[2-(oxan-4-yloxy)quinolin-6-yl]methyl}pyrrolidin-3-yl]oxy}-1-oxo-2,3-dihydro-1H-isoindol-2-yl)piperidine-2,6-dione] were 8.01, 13.54, 33 and 4.52 nM.
In the same order, the values of `O=C1CCC(N2Cc3cc(O[C@H]4CCN(Cc5ccc6nc(C7COC7)ncc6c5)C4)ccc3C2=O)C(=O)N1` (stereo partly drawn) [3-(5-{[(3S)-1-{[2-(oxetan-3-yl)quinazolin-6-yl]methyl}pyrrolidin-3-yl]oxy}-1-oxo-2,3-dihydro-1H-isoindol-2-yl)piperidine-2,6-dione] are 7.78, 7.8, 30 and 16.8 nM.
As for `O=C1CCC(N2Cc3cc(O[C@H]4CCN(Cc5ccc6nc(C7COC7)ccc6c5)C4)ccc3C2=O)C(=O)N1` (stereo partly drawn) [3-(5-{[(3S)-1-{[2-(oxetan-3-yl)quinolin-6-yl]methyl}pyrrolidin-3-yl]oxy}-1-oxo-2,3-dihydro-1H-isoindol-2-yl)piperidine-2,6-dione], in the assay with MKN45 cells, the pEC50 was 7.95 and the “MKN45 Cell Prolif. 120 hr (Ymin-Obs)” value came out at 10.08. For the same compound, on WEE1, the “293T-LentiX WEE1-ePL Degradation 4 hr (Ymin)” value is 33 and the DC50 is 3.79 nM.
Turning to `O=C1CCC(N2Cc3cc(O[C@H]4CCN(Cc5ccc6ncc(C(F)F)cc6c5)C4)ccc3C2=O)C(=O)N1` (stereo partly drawn) [3-(5-{[(3S)-1-{[3-(difluoromethyl)quinolin-6-yl]methyl}pyrrolidin-3-yl]oxy}-1-oxo-2,3-dihydro-1H-isoindol-2-yl)piperidine-2,6-dione], in the assay with MKN45 cells, the pEC50 was 7.84 and the “MKN45 Cell Prolif. 120 hr (Ymin-Obs)” value came out at 11.04. Moreover, at WEE1, the “293T-LentiX WEE1-ePL Degradation 4 hr (Ymin)” value amounted to 33 and the DC50 was 3.38 nM.
Taken in the same sequence, the figures for `COCc1cnc2ccc(CN3CC[C@H](Oc4ccc5c(c4)CN(C4CCC(=O)NC4=O)C5=O)C3)cc2c1` (stereo partly drawn) [3-(5-{[(3S)-1-{[3-(methoxymethyl)quinolin-6-yl]methyl}pyrrolidin-3-yl]oxy}-1-oxo-2,3-dihydro-1H-isoindol-2-yl)piperidine-2,6-dione] were 7.96, 7.64, 33 and 4.28 nM.
For `CNc1cnc2ccc(CN3CC[C@H](Oc4ccc5c(c4)CN(C4CCC(=O)NC4=O)C5=O)C3)cc2c1` (stereo partly drawn) [3-(5-{[(3S)-1-{[3-(methylamino)quinolin-6-yl]methyl}pyrrolidin-3-yl]oxy}-1-oxo-2,3-dihydro-1H-isoindol-2-yl)piperidine-2,6-dione], in the assay with MKN45 cells, the pEC50 was 6.69 and the “MKN45 Cell Prolif. 120 hr (Ymin-Obs)” value is on record as 16.86. For the same compound, on WEE1, the “293T-LentiX WEE1-ePL Degradation 4 hr (Ymin)” value amounted to 34 and the DC50 stood at 18.1 nM.
`O=C1CCC(N2Cc3cc(O[C@H]4CCN(Cc5ccc6ncc(N7CCOCC7)cc6c5)C4)ccc3C2=O)C(=O)N1` (stereo partly drawn) [3-(5-{[(3S)-1-{[3-(morpholin-4-yl)quinolin-6-yl]methyl}pyrrolidin-3-yl]oxy}-1-oxo-2,3-dihydro-1H-isoindol-2-yl)piperidine-2,6-dione]: in the assay with MKN45 cells, the pEC50 was 8.53 and the “MKN45 Cell Prolif. 120 hr (Ymin-Obs)” value stood at 7.83. Also, on WEE1, the “293T-LentiX WEE1-ePL Degradation 4 hr (Ymin)” value is 27 and the DC50 is 3.19 nM.
In the same order, the values of `O=C1CCC(N2Cc3cc(O[C@H]4CCN(Cc5ccc6ncc(C7COC7)cc6c5)C4)ccc3C2=O)C(=O)N1` (stereo partly drawn) [3-(5-{[(3S)-1-{[3-(oxetan-3-yl)quinolin-6-yl]methyl}pyrrolidin-3-yl]oxy}-1-oxo-2,3-dihydro-1H-isoindol-2-yl)piperidine-2,6-dione] are 8.30, 8.08, 30 and 4.67 nM.
`[2H]c1nc2ccc(CN3CCC(Oc4ccc5c(c4)CN(C4CCC(=O)NC4=O)C5=O)C3)cc2cc1F` [3-(5-{[(3S)-1-{[3-fluoro(2-^2H)quinolin-6-yl]methyl}pyrrolidin-3-yl]oxy}-1-oxo-2,3-dihydro-1H-isoindol-2-yl)piperidine-2,6-dione]: in the assay on MKN45 cells, the pEC50 is 7.02 and the “MKN45 Cell Prolif. 120 hr (Ymin-Obs)” value worked out at 21.68. Moreover, on WEE1, the “293T-LentiX WEE1-ePL Degradation 4 hr (Ymin)” value is on record as 35 and the DC50 is 3.57 nM.
Take `Cc1nc(N2CCOCC2)nc2ccc(CN3CC[C@H](Oc4ccc5c(c4)CN(C4CCC(=O)NC4=O)C5=O)C3)cc12` (stereo partly drawn) [3-(5-{[(3S)-1-{[4-methyl-2-(morpholin-4-yl)quinazolin-6-yl]methyl}pyrrolidin-3-yl]oxy}-1-oxo-2,3-dihydro-1H-isoindol-2-yl)piperidine-2,6-dione]: in the assay with MKN45 cells, the pEC50 is 8.03 and the “MKN45 Cell Prolif. 120 hr (Ymin-Obs)” value is listed as 7.12. On WEE1, the “293T-LentiX WEE1-ePL Degradation 4 hr (Ymin)” value stood at 36 and the DC50 worked out at 5.37 nM.
